Laboratory results as given in patent publication US9765037B2, “Compositions and methods for treating toxoplasmosis, cryptosporidiosis, and other apicomplexan protozoan related diseases” (University of Washington Through its Center for …, priority 2010, dated 2017).
Like-named read-outs stand apart in the source and are kept apart here.

How the values were obtained:
[1] = target: CpCDPK1 (Cryptosporidium parvum (strain Iowa II), UniProt A3FQ16); assay: biochemical; type: biochemical
[2] = target: TgCDPK1 (Toxoplasma gondii, UniProt Q9BJF5); type: biochemical; conditions: for IC50: read-out: IC50 (μM) TgCDPK1
[3] = system: human lymphocyte (CRL8155); assay: Growth inhibition of human cell line CRL8155
[4] = target: PfCDPK1 (Plasmodium falciparum (isolate 3D7), UniProt P62344); assay: biochemical
[5] = system: human promyelocytic leukemia (HL-60); assay: Growth inhibition of human cell line HL-60
[6] = target: PfCDPK4 (Plasmodium falciparum (isolate 3D7), UniProt Q8IBS5); assay: biochemical
[7] = Table 8, read-out: IC50 (μM) CpCDPK1

Sequence of TgCDPK1 (Q9BJF5 1-507): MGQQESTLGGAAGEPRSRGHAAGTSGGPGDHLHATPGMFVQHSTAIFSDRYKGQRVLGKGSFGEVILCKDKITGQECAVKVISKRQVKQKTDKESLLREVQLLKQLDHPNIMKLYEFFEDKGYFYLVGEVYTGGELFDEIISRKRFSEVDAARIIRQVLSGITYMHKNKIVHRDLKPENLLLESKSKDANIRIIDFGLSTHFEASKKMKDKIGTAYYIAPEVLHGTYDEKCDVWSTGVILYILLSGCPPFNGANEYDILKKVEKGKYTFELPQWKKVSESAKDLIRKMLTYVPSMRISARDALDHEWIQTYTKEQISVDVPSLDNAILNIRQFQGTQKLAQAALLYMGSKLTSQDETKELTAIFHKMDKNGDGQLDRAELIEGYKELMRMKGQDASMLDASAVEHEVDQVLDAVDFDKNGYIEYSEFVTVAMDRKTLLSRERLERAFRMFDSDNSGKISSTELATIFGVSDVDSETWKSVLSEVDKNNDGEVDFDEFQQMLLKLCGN
Sequence of CpCDPK1 (A3FQ16 1-538): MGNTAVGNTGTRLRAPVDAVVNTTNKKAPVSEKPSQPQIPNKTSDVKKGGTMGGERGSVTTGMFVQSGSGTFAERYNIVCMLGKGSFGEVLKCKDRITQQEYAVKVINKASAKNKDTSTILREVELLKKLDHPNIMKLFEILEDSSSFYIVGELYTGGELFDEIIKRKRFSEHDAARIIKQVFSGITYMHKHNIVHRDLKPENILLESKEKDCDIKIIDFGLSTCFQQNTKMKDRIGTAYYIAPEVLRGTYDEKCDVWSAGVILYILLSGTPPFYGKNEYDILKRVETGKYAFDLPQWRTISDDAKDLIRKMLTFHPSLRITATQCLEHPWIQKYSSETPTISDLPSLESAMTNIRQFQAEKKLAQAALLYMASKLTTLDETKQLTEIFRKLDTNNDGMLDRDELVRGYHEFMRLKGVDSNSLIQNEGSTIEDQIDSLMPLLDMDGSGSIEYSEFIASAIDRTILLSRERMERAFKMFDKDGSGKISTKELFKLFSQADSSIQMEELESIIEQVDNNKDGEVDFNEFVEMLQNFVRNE

Row | SMILES | Cell Toxicity CRL8155, % at 10 μM [3] | EC50 [4] [nM] | Cell Toxicity HL60, % at 10 μM [5] | EC50 [6] [nM] | also measured
1 | COc1ccc(-c2nn(C(C)C)c3ncnc(N)c23)cc1C [Compound 7m, 1-isopropyl-3-(4-methoxy-3-methylphenyl)-1H-pyrazolo[3,4-d]pyrimidin-4-amine] |  |  |  |  | IC50 ([1]; read-out: IC50 (μM) CpCDPK1): 0.017 µM
2 | CC(C)n1nc(-c2cccc3ccccc23)c2c(N)ncnc21 [Compound 7o, 1-isopropyl-3-(naphthalen-1-yl)-1H-pyrazolo[3,4-d]pyrimidin-4-amine] |  |  |  |  | IC50 [2]: 0.326 µM; IC50 ([1]; read-out: CpCDPK1 IC50): 0.62 µM
3 | CC(C)n1nc(-c2cccc(Cc3ccccc3)c2)c2c(N)ncnc21 [Compound 7y, 3-(3-benzylphenyl)-1-isopropyl-1H-pyrazolo[3,4-d]pyrimidin-4-amine] |  |  |  |  | inhibition of TgCDPK1 (in words) [2]: neither kinase is inhibited; IC50 [2]: 0.322 µM
4 | CC(C)n1nc(-c2cccc(-c3ccccc3)c2)c2c(N)ncnc21 [Compound 7z, 3-(biphenyl-3-yl)-1-isopropyl-1H-pyrazolo[3,4-d]pyrimidin-4-amine] |  |  |  |  | inhibition of TgCDPK1 (in words) [2]: neither kinase is inhibited; IC50 [2]: 2.23 µM
5 | CC(C)n1nc(-c2ccc3c(ccn3C)c2)c2c(N)ncnc21 [Compound 20, 1-isopropyl-3-(1-methyl-1H-indol-5-yl)-1H-pyrazolo[3,4-d]pyrimidin-4-amine] | <30% at 10 μM | 309 | <30% at 10 μM | 231 | IC50 [1, 7]: 0.003 µM
6 | Cc1cccc2[nH]c(-c3nn(C(C)C)c4ncnc(N)c34)cc12 [Compound 25, 1-isopropyl-3-(4-methyl-1H-indol-2-yl)-1H-pyrazolo[3,4-d]pyrimidin-4-amine] | 38% toxicity at |  | 47% toxicity at | 579 | 
7 | CC(C)n1nc(-c2ccc3cc(OCc4ccccc4Cl)ccc3c2)c2c(N)ncnc21 [Compound 46, 3-(6-(2-chlorobenzyloxy)naphthalen-2-yl)-1-isopropyl-1H-pyrazolo[3,4-d]pyrimidin-4-amine] | <30% at 10 μM | 477 | <30% at 10 μM | > 3000 | 
8 | CC(C)n1nc(-c2ccc3cc(OCc4cccc(Cl)c4)ccc3c2)c2c(N)ncnc21 [Compound 47, 3-(6-(3-chlorobenzyloxy)naphthalen-2-yl)-1-isopropyl-1H-pyrazolo[3,4-d]pyrimidin-4-amine] |  | 1290 |  | 1430 | IC50 [1, 7]: 0.272 µM
9 | CC(C)n1nc(-c2ccc3cc(OCc4ccc(Cl)cc4)ccc3c2)c2c(N)ncnc21 [Compound 56, 3-(6-(4-chlorobenzyloxy)naphthalen-2-yl)-1-isopropyl-1H-pyrazolo[3,4-d]pyrimidin-4-amine] |  | 1140 |  | 888 | IC50 [1, 7]: 0.105 µM
10 | CN(C)c1ccc2cc(-c3nn(CC4CCNCC4)c4ncnc(N)c34)ccc2n1 [Compound 68, 6-(4-amino-1-(piperidin-4-ylmethyl)-1H-pyrazolo[3,4-d]pyrimidin-3-yl)-N,N-dimethylquinolin-2-amine] |  |  |  |  | IC50 [1, 7]: > 3 µM
11 | CC(C)(C)c1nc(-c2cnc3ccccc3c2)c2c(N)nccn12 [Compound 72, 3-tert-butyl-1-(quinolin-3-yl)imidazo[1,5-a]pyrazin-8-amine] | <30% at 10 μM | 948 | <30% at 10 μM | 241 | 
12 | O=C(NCCO)Nc1nc2ccc(C(=O)c3ccccc3)cc2[nH]1 [Compound 90] | <30% at 10 μM |  | <30% at 10 μM |  | 
13 | Nc1ncnc2c1c(I)nn2CC1CCNCC1 [Compound 98] | <30% at 10 μM |  | <30% at 10 μM |  | 
14 | NCCCCCC(=O)Nc1nc2ccc(C(=O)c3ccccc3)cc2[nH]1 [Compound 105] | <30% at 10 μM |  | <30% at 10 μM |  | 
15 | O=C(CCCC1CCNCC1)Nc1nc2ccc(C(=O)c3ccccc3)cc2[nH]1 [Compound 115] | <30% at 10 μM |  | <30% at 10 μM |  | 
16 | Nc1ncnc2c1c(-c1ccc3nccnc3c1)nn2CC1CCNCC1 [Compound 122] | <30% at 10 μM | 482 | <30% at 10 μM | > 3000 | Cell Toxicity CRL8155, % at 30 μM ([3]; 30 μM): <30% at 30 μM; Cell Toxicity HL60, % at 30 μM ([5]; 30 μM): <30% at 30 μM
17 | CC(C)(C)n1nc(-c2ccc3oc(-c4ccccc4)nc3c2)c2c(N)ncnc21 [Compound 131] |  | 266 |  | > 3000 | 
18 | CC(C)(C)n1nc(-c2ccc(-c3nn(C(C)(C)C)c4ncnc(N)c34)cc2)c2c(N)ncnc21 [Compound 141] |  | 1470 |  | 2030 | inhibition at 3 µM ([4]; read-out: PfCDPK1 (% inhibition @ 3 uM)): 92%; inhibition at 3 µM ([6]; read-out: PfCDPK4 (% inhibition @ 3 uM)): 55%
